This passage reports inhibition and IC50 results from patent US20250326753A1, “DUAL CXCR4-BTK INHIBITORS” (X4 Pharmaceuticals, Inc., priority 2022, published 2025).

Structures are written as SMILES. Where two headings read alike, the source gives them in different places.

Assay [1] addresses T1, EPHB2 (Homo sapiens, UniProt P29323).
T1 construct: purchased Reaction Biology Europe GmbH
T1 sequence (P29323 19-1055): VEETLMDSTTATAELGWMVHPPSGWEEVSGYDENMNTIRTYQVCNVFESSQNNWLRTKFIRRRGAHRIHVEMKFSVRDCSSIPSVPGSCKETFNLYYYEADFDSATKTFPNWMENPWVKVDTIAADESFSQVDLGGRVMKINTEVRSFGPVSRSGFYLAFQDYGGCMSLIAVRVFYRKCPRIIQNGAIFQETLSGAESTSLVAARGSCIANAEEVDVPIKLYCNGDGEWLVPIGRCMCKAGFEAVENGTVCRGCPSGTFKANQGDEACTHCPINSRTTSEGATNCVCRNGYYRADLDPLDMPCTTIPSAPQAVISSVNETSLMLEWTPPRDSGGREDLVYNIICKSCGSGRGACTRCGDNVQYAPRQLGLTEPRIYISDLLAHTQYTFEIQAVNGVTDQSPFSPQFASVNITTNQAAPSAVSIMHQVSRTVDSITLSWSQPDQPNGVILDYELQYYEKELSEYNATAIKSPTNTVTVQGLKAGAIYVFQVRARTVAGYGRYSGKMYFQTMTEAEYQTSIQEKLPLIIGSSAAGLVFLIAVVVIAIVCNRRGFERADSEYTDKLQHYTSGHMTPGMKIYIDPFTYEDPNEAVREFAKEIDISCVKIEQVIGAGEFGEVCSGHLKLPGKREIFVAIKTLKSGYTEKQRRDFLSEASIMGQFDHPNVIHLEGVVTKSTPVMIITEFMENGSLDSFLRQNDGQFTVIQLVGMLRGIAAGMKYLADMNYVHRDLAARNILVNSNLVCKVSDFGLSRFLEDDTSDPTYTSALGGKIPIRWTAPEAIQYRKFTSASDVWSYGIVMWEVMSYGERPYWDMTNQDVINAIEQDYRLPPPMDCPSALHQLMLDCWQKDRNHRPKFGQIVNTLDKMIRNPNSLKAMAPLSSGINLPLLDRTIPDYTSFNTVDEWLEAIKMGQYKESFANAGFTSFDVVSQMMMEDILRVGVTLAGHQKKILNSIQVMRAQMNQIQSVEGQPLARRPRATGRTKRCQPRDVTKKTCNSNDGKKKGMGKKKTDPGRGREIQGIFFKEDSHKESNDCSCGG
Nature of the assay: PanQinase kinase panel: EPHB2. It is filed as biochemical. To be noted: read-out: INHIBITORY EFFECT @ 1 uM: EPHB2. As for the experimental part: (§1) Screening procedures were performed in accordance with the company's on-line protocol [accessed on-line Mar.
(§2) For each kinase, the median value of the cpm of three wells was defined as “low control” (n=3). This value reflects unspecific binding of radioactivity to the plate in the absence of a protein kinase but in the presence of the substrate. Additionally, for each kinase the median value of the cpm of three other wells was taken as the “high control,” i.e. full activity in the absence of any inhibitor (n=3). The difference between high and low control of each enzyme was taken as 100% activity.
(§3) As part of the data evaluation the low control of each kinase was subtracted from the high control value as well as from their corresponding “compound values”. The residual activity (in %) for each compound well was calculated by using the following formula: Res. Activity (%)=100×[(signal of compound−low control)/(high control−low control)].

For assay [2], the target named is T2, RAF1 YDYD (Homo sapiens, UniProt P04049, Y340D/Y341D).
T2 construct: purchased Reaction Biology Europe GmbH
T2 sequence (P04049 307-648 Y340D/Y341D limits assumed): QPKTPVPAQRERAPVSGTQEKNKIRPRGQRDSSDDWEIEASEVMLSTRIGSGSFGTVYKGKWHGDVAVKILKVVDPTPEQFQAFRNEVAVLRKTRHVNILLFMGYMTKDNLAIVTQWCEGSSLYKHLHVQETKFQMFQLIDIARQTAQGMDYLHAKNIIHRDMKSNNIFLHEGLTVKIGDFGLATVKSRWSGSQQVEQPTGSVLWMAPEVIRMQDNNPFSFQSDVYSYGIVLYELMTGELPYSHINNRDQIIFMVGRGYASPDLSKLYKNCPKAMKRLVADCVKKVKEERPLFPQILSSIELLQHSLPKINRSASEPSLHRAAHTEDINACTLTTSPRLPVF
Nature of the assay: PanQinase kinase panel: RAF1 YDYD. It is filed as biochemical. To be noted: read-out: INHIBITORY EFFECT @ 1 uM: RAF1 YDYD. How it is done:
as §1, §2, §3

The target in assay [3] is T3, MEKK2 (Homo sapiens, UniProt Q9Y2U5).
T3 construct: purchased Reaction Biology Europe GmbH
T3 sequence (Q9Y2U5 1-619): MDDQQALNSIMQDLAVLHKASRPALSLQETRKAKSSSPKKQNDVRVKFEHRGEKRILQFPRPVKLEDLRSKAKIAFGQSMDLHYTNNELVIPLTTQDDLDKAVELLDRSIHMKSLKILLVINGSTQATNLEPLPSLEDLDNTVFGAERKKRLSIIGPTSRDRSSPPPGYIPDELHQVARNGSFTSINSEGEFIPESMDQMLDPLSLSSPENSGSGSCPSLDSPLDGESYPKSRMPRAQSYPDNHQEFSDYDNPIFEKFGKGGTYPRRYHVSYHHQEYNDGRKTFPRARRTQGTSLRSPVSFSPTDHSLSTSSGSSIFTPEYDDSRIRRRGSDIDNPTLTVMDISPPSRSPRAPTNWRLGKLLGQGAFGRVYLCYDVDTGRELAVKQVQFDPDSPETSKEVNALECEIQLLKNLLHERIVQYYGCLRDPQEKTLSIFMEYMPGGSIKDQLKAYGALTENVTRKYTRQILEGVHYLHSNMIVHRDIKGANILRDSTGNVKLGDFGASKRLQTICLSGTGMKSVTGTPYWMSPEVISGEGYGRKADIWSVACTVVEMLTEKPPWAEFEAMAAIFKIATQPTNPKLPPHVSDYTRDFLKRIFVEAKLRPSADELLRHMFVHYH
The experiment in a line: PanQinase kinase panel: MEKK2. The format is biochemical. Particulars: read-out: INHIBITORY EFFECT @ 1 uM: MEKK2. How it is done:
as §1, §2, §3

Assay [4] has as its target T4, MINK1 (Homo sapiens, UniProt Q8N4C8).
T4 construct: purchased Reaction Biology Europe GmbH
Nature of the assay: PanQinase kinase panel: MINK1. It is filed as biochemical. Particulars: read-out: INHIBITORY EFFECT @ 1 uM: MINK1. As for the experimental part:
as §1, §2, §3

Assay [5] has as its system Ramos cell line. The experiment in a line: Ramos cell line viability assay (CellTiter-Glo, 72 hr). The format is cell-based. To be noted: Homo sapiens. As for the experimental part: Inhibition of non-Hodgkin lymphoma B-cell proliferation by compounds of the present invention was evaluated in a Ramos cell line. Ramos is a B lymphocyte cell line that was derived from a patient with Burkitt's Lymphoma.
Cell viability was analyzed with the CellTiter-Glo® Luminescent Cell Viability Assay Kit (G7572, Promega), according to the manufacturer's instruction. Cells were seeded into a 96-well/384-well plate and then incubated in 5% CO2 at 37° C. overnight. Compounds were added to the cells, with 9-10 dose points in duplicates in 3-fold dilution from a top concentration of 30 μM, and incubated in 5% CO2 at 37° C. for 72 hr. The 96-well/384-well plate was equilibrated at room temperature for 30 min. 50 μl/25 μl of CellTiter-Glo® Reagent was added to each well and mixed for 2 min on an orbital shaker to induce cell lysis. The 96-well/384-well plate was incubated at room temperature for 10 min to stabilize luminescent signal. Luminescence was detected on a PerkinElmer EnVision Multimode Plate Reader as relative luminescence units (RLU).

Assay [6] has as its target T5, ABL2 (Homo sapiens, UniProt P42684).
T5 construct: purchased Reaction Biology Europe GmbH
Nature of the assay: PanQinase kinase panel: ABL2. The format is biochemical. As for the experimental part: as §1, §2, §3

Assay [7] addresses T6, SIK2 (Homo sapiens, UniProt Q9H0K1).
T6 construct: purchased Reaction Biology Europe GmbH
The experiment in a line: PanQinase kinase panel: SIK2. It is filed as biochemical. How it is done:
as §1, §2, §3

Setting [8] is: class, read-out: Ramos viability IC50.
Where [9] appears, read: read-out: INHIBITORY EFFECT @ 1 uM: ABL2.
Setting [10] is: read-out: INHIBITORY EFFECT @ 1 uM: SIK2.

T4 sequence (Q8N4C8 whole entry): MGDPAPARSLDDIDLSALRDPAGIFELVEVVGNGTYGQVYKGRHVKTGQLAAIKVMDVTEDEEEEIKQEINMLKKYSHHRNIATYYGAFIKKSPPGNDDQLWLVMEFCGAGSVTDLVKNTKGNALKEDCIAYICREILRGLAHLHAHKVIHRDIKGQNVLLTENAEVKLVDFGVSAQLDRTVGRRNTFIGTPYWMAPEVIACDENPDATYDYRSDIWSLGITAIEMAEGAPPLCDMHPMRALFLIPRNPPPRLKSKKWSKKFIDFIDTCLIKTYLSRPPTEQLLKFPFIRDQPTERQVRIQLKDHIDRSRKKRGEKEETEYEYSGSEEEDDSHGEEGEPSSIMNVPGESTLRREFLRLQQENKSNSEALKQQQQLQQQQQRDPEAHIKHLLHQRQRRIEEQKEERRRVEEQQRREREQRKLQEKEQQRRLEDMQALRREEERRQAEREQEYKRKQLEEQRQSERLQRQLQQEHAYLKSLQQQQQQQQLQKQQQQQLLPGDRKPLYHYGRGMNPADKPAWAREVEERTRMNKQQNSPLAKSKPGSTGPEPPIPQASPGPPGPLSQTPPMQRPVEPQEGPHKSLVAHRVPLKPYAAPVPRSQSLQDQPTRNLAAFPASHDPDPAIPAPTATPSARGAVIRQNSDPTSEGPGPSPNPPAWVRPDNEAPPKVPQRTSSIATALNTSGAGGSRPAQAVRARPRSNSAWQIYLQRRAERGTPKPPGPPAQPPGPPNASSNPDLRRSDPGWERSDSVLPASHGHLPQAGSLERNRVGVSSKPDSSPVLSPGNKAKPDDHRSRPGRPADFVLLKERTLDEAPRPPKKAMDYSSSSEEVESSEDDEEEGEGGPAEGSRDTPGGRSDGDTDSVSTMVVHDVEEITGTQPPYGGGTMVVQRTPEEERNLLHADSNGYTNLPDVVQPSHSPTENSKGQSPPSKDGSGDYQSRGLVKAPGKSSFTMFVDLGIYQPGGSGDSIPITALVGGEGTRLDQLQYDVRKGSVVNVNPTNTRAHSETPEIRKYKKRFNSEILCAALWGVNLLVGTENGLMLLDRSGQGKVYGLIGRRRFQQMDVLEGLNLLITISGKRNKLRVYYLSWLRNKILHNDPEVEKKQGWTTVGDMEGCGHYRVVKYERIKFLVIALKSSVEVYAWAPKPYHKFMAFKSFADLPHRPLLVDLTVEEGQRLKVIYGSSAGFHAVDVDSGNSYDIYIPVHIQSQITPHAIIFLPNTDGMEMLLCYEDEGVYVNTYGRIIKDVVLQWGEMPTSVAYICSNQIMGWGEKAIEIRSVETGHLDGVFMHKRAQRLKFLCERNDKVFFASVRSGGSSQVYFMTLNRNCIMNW
T5 sequence (P42684 whole entry): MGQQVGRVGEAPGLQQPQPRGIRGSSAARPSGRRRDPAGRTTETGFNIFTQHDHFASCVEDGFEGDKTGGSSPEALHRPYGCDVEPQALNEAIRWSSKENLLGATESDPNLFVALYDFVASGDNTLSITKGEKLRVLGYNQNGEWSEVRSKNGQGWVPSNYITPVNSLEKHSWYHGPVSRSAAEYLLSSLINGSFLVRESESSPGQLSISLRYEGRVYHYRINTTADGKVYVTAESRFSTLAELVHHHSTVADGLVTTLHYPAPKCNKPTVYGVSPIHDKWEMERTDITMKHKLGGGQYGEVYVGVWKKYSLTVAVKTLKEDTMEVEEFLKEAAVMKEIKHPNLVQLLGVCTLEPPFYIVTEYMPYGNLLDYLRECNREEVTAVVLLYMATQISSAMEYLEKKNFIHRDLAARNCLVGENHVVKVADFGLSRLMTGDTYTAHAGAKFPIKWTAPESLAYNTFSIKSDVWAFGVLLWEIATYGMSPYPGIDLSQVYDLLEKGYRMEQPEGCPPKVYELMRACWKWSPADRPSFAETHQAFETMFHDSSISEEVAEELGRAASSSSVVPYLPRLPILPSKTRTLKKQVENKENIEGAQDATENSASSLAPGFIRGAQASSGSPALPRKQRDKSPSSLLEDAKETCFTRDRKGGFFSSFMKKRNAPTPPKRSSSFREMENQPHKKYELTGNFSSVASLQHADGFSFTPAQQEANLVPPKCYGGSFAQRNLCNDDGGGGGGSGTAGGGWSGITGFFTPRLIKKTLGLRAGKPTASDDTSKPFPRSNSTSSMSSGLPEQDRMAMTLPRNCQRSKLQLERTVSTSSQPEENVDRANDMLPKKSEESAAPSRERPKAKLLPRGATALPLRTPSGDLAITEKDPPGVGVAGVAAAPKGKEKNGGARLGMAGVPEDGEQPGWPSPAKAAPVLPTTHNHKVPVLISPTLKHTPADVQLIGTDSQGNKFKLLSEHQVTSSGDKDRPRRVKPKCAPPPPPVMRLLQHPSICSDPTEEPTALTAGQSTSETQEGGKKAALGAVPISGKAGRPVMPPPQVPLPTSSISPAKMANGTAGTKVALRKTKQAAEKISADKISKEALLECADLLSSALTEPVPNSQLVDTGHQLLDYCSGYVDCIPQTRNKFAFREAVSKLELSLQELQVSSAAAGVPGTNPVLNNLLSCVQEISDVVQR
T6 sequence (Q9H0K1 whole entry): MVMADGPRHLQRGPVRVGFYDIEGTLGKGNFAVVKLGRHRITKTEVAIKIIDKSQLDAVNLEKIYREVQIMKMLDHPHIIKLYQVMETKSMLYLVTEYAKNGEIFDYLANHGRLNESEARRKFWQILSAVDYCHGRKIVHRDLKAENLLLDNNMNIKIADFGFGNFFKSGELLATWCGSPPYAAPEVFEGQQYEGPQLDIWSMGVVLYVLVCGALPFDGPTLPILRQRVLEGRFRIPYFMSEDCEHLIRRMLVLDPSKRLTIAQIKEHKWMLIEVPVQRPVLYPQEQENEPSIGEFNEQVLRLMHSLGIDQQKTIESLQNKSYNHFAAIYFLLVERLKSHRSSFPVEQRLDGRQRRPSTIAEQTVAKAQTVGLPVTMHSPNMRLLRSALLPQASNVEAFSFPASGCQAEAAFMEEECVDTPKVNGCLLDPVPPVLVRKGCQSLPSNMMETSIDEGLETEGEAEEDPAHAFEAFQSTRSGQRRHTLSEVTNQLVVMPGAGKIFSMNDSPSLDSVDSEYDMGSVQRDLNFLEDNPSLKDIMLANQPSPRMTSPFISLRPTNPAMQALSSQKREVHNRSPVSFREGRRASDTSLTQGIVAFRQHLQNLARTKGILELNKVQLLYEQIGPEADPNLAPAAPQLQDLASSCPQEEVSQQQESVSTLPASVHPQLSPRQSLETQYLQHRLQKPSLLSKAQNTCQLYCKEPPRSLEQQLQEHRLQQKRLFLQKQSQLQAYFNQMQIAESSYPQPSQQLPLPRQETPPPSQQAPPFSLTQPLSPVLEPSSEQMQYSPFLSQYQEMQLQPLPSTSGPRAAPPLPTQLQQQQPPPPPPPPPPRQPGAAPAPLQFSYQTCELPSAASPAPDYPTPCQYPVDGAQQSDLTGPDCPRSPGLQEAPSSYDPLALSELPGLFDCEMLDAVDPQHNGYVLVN

Regarding `O=C(c1ccc(Oc2ccccc2)cc1Cl)c1c[nH]c2ncnc(N[C@@H]3CC[C@@H](CO)OC3)c12` [ARQ-531, (2-chloro-4-phenoxyphenyl) (4-(((3R,6S)-6-(hydroxymethyl)tetrahydro-2H-pyran-3-yl)amino)-7H-pyrrolo[2,3-d]pyrimidin-5-yl) methanone], the inhibition at 1 µM in assay [1] was 70 to 89%; in assay [2], 70 to 89%; in assay [3], 70 to 89%; in assay [4], 50 to 69%.
Turning to `Cc1cccnc1[C@H]1CCC[C@@H](c2ncccc2C)N1CCN1CCN(C(=O)c2ccc(-c3cc4c(-c5cccc(NC(=O)c6ccccc6)c5C)ncnc4[nH]3)cc2)CC1` [Compound I-10, N-(3-(6-(4-(4-(2-((2R,6S)-2,6-bis(3-methylpyridin-2-yl)piperidin-1-yl)ethyl)piperazine-1-carbonyl)phenyl)-7H-pyrrolo[2,3-d]pyrimidin-4-yl)-2-methylphenyl)benzamide], the IC50 in assay [5] (setting [8]) is 2000 to 4000 nM; in assay [5] (read-out: IC50) it was 2670 nM. Besides, the inhibition at 1 µM in assay [1] is < 50%; in assay [2] it was < 50%; in assay [6] (at 1 μM, read-out: inhibition of ABL2), 50 to 89%; in assay [6] (setting [9]), 70 to 89%; in assay [7] (at 1 μM, read-out: inhibition of SIK2), 50 to 89%; in assay [7] (setting [10]) it was 50 to 69%. Also, the inhibition at 1 µM in assay [3] and in assay [4] was < 50% in each case.
Turning to `Cc1cccnc1[C@H]1CCC[C@@H](c2ncccc2C)N1CCCCNC(=O)[C@@H]1CC[C@@H](Nc2ncnc3[nH]cc(C(=O)c4ccc(Oc5ccccc5)cc4Cl)c23)CO1` [Compound I-16], the IC50 is 1000 to 1500 nM in assay [5] (setting [8]) and 1480 nM in assay [5] (read-out: IC50).
Take `Cc1cccnc1[C@H]1CCC[C@@H](c2ncccc2C)N1CCCCNC(=O)OC[C@@H]1CC[C@@H](Nc2ncnc3[nH]cc(C(=O)c4ccc(Oc5ccccc5)cc4Cl)c23)CO1` [Compound I-18]: the IC50 was 1000 to 1500 nM in assay [5] (setting [8]) and 1330 nM in assay [5] (read-out: IC50).
Turning to `COc1ccc(F)cc1C(=O)NCc1ccc(-c2nn([C@@H](C)C(F)(F)F)c(N)c2C(N)=O)cc1` [LOXO-305, pirtobrutinib], the inhibition at 1 µM in assay [1], in assay [2], in assay [6] (setting [9]), in assay [7] (setting [10]), in assay [3] and in assay [4] was < 50% throughout.
In the case of `C=CC(=O)N1CCC([C@@H]2CCNc3c(C(N)=O)c(-c4ccc(Oc5ccccc5)cc4)nn32)CC1` [Zanubrutinib, (7S)-2-(4-phenoxyphenyl)-7-(1-prop-2-enoylpiperidin-4-yl)-4,5,6,7-tetrahydropyrazolo[1,5-a]pyrimidine-3-carboxamide], the IC50 in assay [5] (setting [8]) is ≥ 4000 nM; in assay [5] (read-out: IC50), 11900 nM. Also, the inhibition at 1 µM in assay [1], in assay [2], in assay [6] (setting [9]), in assay [7] (setting [10]), in assay [3] and in assay [4] was < 50% throughout.

By IC50 is commonly meant the point on the concentration scale where inhibition reaches its midpoint.
